Measurements from patent US20250382277A1, “SMALL MOLECULE INHIBITORS OF DYRK/CLK AND USES THEREOF” (Arizona Board of Regents on Behalf of the University of …, priority 2022, published 2025).
Structures can show the parent of a compound that is named as a salt.

Assays:
WNT signaling = experiment: WNT reporter assay (TopGFP reporter); format: cell-based; settings: Human Colonic Epithelial Cells (HCEC) with TopGFP reporter, stimulated with 10 μM CHIR99021, 24 hours
Excerpt: KDs were obtained from Eurofins.

DYRK1A = DYRK1A (Homo sapiens, UniProt Q13627); experiment: biochemical
Method: KDs were obtained from Eurofins. The KdELECT Kinase Assay Panel enables quantitated compound binding affinity against any kinase assay. Inhibitor binding constants (Kd values) are calculated from duplicate 11-point dose-response curves. Measurements are made under optimized conditions that generate true thermodynamic Kd values which facilitate direct comparison of inhibitor affinity across kinases.

| Compound | EC50 (WNT signaling) [µM] | Kd (DYRK1A) [µM] |
| --- | --- | --- |
| Nc1cc(-c2ccc3ncnc(-c4cnc(N5CCOCC5)c(F)c4)c3c2)ccn1 [Compound 11, 4-(4-(5-fluoro-6-morpholinopyridin-3-yl)quinazolin-6-yl)pyridin-2-amine] | 0.1 to 1 | < 0.1 |
| Nc1cc(-c2ccc3ncnc(-c4ccc(N5CCOCC5)c(F)c4)c3n2)ccn1 [Compound 12, 4-(4-(3-fluoro-4-morpholinophenyl)pyrido[3,2-d]pyrimidin-6-yl)pyridin-2-amine] | < 0.1 | < 0.1 |
| Nc1nccc(-c2ccc3ncnc(-c4ccc(N5CCOCC5)c(F)c4)c3c2)n1 [Compound 15, 4-(4-(3-fluoro-4-morpholinophenyl)quinazolin-6-yl)pyrimidin-2-amine] | 0.1 to 1 | < 0.1 |
| Cc1cc(-c2ccc3ncnc(-c4ccc(N5CCOCC5)c(F)c4)c3n2)ccn1 [Compound 17, 4-(2-fluoro-4-(6-(2-methylpyridin-4-yl)pyrido[3,2-d]pyrimidin-4-yl)phenyl)morpholine] | > 1 | < 0.1 |
| Nc1cc(-c2ccc3ncnc(-c4cnc(N5CCC(N6CCOCC6)CC5)c(F)c4)c3c2)ccn1 [Compound 19, 4-(4-(5-fluoro-6-(4-morpholinopiperidin-1-yl)pyridin-3-yl)quinazolin-6-yl)pyridin-2-amine] | 0.1 to 1 | < 0.1 |
| CC1(C)CN(c2ncc(-c3ncnc4ccc(-c5ccnc(N)c5)cc34)cc2F)CCO1 [Compound 20, 4-(4-(6-(2,2-dimethylmorpholino)-5-fluoropyridin-3-yl)quinazolin-6-yl)pyridin-2-amine] | > 1 | < 0.1 |
| COc1ccc(-c2ncnc3ccc(-c4ccnc(N)c4)cc23)cc1C [Compound 21, 4-(4-(4-methoxy-3-methylphenyl)quinazolin-6-yl)pyridin-2-amine] | 0.1 to 1 | < 0.1 |
| Nc1cc(-c2ccc3ncnc(-c4cnc(N5CCC6(CCOC6)CC5)c(F)c4)c3c2)ccn1 [Compound 23, 4-(4-(5-fluoro-6-(2-oxa-8-azaspiro[4.5]decan-8-yl)pyridin-3-yl)quinazolin-6-yl)pyridin-2-amine hydrochloride] | 0.1 to 1 | < 0.1 |
| Nc1cc(-c2ccc3ncnc(-c4cnc(N5CCNCC5)c(F)c4)c3c2)ccn1 [Compound 24, 4-(4-(5-fluoro-6-(piperazin-1-yl)pyridin-3-yl)quinazolin-6-yl)pyridin-2-amine hydrochloride] | > 1 | < 0.1 |
| CN1CCN(c2ncc(-c3ncnc4ccc(-c5c[nH]c6ncccc56)cc34)cc2F)CC1 [Compound 26, 4-(5-fluoro-6-(4-methylpiperazin-1-yl)pyridin-3-yl)-6-(1H-pyrrolo[2,3-b]pyridin-3-yl)quinazoline] | 0.1 to 1 | < 0.1 |
| Fc1cc(-c2ncnc3ccc(-c4c[nH]c5ncccc45)cc23)cnc1N1CCNCC1 [Compound 27, 4-(5-fluoro-6-(piperazin-1-yl)pyridin-3-yl)-6-(1H-pyrrolo[2,3-b]pyridin-3-yl)quinazoline] | 0.1 to 1 | < 0.1 |
| Nc1cc(-c2ccc3ncnc(-c4ccc(N5C[C@@H]6C[C@H]5CO6)c(F)c4)c3c2)ccn1 [Compound 29, 4-(4-(4-((1S,4S)-2-oxa-5-azabicyclo[2.2.1]heptan-5-yl)-3-fluorophenyl)quinazolin-6-yl)pyridin-2-amine] | 0.1 to 1 | < 0.1 |
| Nc1cc(-c2ccc3ncnc(-c4cnc(N5CCC6(CCNC6=O)CC5)c(F)c4)c3c2)ccn1 [Compound 30, 8-(5-(6-(2-aminopyridin-4-yl)quinazolin-4-yl)-3-fluoropyridin-2-yl)-2,8-diazaspiro[4.5]decan-1-one] | 0.1 to 1 | < 0.1 |
| Nc1cc(-c2ccc3nccc(-c4ccc(N5CCOCC5)c(F)c4)c3c2)ccn1 [Compound 32, 4-(4-(3-fluoro-4-morpholinophenyl)quinolin-6-yl)pyridin-2-amine] | 0.1 to 1 | < 0.1 |
| Fc1cc(-c2ncnc3ccc(-c4c[nH]c5ncccc45)cc23)ccc1N1CCNCC1 [Compound 33, 4-(3-fluoro-4-(piperazin-1-yl)phenyl)-6-(1H-pyrrolo[2,3-b]pyridin-3-yl)quinazoline] | 0.1 to 1 | < 0.1 |

Next, values leading:

| EC50 (WNT signaling) [µM] | Kd (DYRK1A) [µM] | Compound |
| --- | --- | --- |
| 0.1 to 1 | < 0.1 | Nc1cc(-c2ccc3ncnc(-c4ccc(CN5CCOCC5)c(F)c4)c3c2)ccn1 [Compound 3, 4-(4-(3-fluoro-4-(morpholinomethyl)phenyl)quinazolin-6-yl)pyridin-2-amine] |
| > 1 | < 0.1 | Nc1cc(-c2ccc3ncnc(-c4cccc(N5CCOCC5)c4)c3c2)ccn1 [Compound 4, 4-(4-(3-morpholinophenyl)quinazolin-6-yl)pyridin-2-amine] |
| > 1 | < 0.1 | Nc1cc(-c2ccc3ncnc(-c4cccc(CN5CCOCC5)c4)c3c2)ccn1 [Compound 8, 4-(4-(3-(morpholinomethyl)phenyl)quinazolin-6-yl)pyridin-2-amine] |
| 0.1 to 1 | < 0.1 | CN1CCN(c2ncc(-c3ncnc4ccc(-c5ccnc(N)c5)cc34)cc2F)CC1 [Compound 9, 4-(4-(5-fluoro-6-(4-methylpiperazin-1-yl)pyridin-3-yl)quinazolin-6-yl)pyridin-2-amine] |
| > 1 | < 0.1 | Nc1cc(-c2ccc3ncnc(-c4ccnc(N5CCOCC5)c4)c3c2)ccn1 [Compound 14, 4-(4-(2-morpholinopyridin-4-yl)quinazolin-6-yl)pyridin-2-amine] |
| 0.1 to 1 | < 0.1 | Nc1cc(-c2ccc3ncnc(-c4ccc(N5CCOCC5)cc4)c3c2)ccn1 [Compound 16, 4-(4-(4-morpholinophenyl)quinazolin-6-yl)pyridin-2-amine] |
| < 0.1 | < 0.1 | CC(=O)N1CCN(c2ccc(-c3ncnc4ccc(-c5ccnc(N)c5)cc34)cc2)CC1 [Compound 22, 1-(4-(4-(6-(2-aminopyridin-4-yl)quinazolin-4-yl)phenyl)piperazin-1-yl)ethan-1-one] |
| < 0.1 | < 0.1 | CN1CCN(c2ccc(-c3ncnc4ccc(-c5ccnc(N)c5)cc34)cc2F)CC1 [Compound 25, 4-(4-(3-fluoro-4-(4-methylpiperazin-1-yl)phenyl)quinazolin-6-yl)pyridin-2-amine] |
| 0.1 to 1 | < 0.1 | Nc1cc(-c2ccc3ncnc(-c4ccc(N5CC6(COC6)C5)c(F)c4)c3c2)ccn1 [Compound 28, 4-(4-(3-fluoro-4-(2-oxa-6-azaspiro[3.3]heptan-6-yl)phenyl)quinazolin-6-yl)pyridin-2-amine] |
| 0.1 to 1 | < 0.1 | CN1CCN(c2c(F)cc(-c3ncnc4ccc(-c5ccnc(N)c5)cc34)cc2F)CC1 [Compound 31, 4-(4-(3,5-difluoro-4-(4-methylpiperazin-1-yl)phenyl)quinazolin-6-yl)pyridin-2-amine] |
| 0.1 to 1 | < 0.1 | CC(=O)N1CCN(c2ccc(-c3ncnc4ccc(-c5ccnc(N)c5)cc34)cc2F)CC1 [Compound 34, 1-(4-(4-(6-(2-aminopyridin-4-yl)quinazolin-4-yl)-2-fluorophenyl)piperazin-1-yl)ethan-1-one] |
| 0.1 to 1 | < 0.1 | Nc1cc(-c2ccc3ncnc(-c4ccc(N5CCNCC5)c(F)c4)c3c2)ccn1 [Compound 35, 4-(4-(3-fluoro-4-(piperazin-1-yl)phenyl)quinazolin-6-yl)pyridin-2-amine] |
